Columns and labels:
[1] = Aqua adduct formation of ZL33 at chloride levels of nucleus, cytoplasm and plasma (1H NMR); format: physicochemical; settings: 1 mM in D2O, 310 K
Experimental: The effects of chloride concentrations typical of blood plasma (100 mM), cell cytoplasm (22.7 mM), and cell nucleus (4 mM) on the aqueous chemistry of ZL33 was investigated. ^1H NMR spectra of ZL33 (1 mM) were recorded within 10 min of sample preparation and after incubation at 310 K for 24 h (FIG. 4). […] (pH* 6.52) or in 22.7 mM [Cl] (pH* 6.72), and only 5% of ZL33A at 4 mM [Cl] (pH* 6.89) after 10 min. No significant change was observed after 24 h, see Table 2.

[2] = tested on: human ovarian A2780 cancer cells; test: Cancer cell cytotoxicity, SRB assay; format: cell-based; settings: 24 h exposure, 72 h recovery, SRB; read-out: A2780 IC50
How it was run: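 Cells plated at 5000/well were dosed on day 3 with Ir^III complexes (0.05–100 μM, from DMSO stocks diluted into saline and medium) for 24 h. After washout they grew for 72 h in fresh medium before SRB protein staining as a survival read-out. Two independent experiments of three replicates each.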

Structure (SMILES): Cc1c(C)c(-c2ccccc2)[c-](C)c1C.F[P-](F)(F)(F)(F)F.[Cl-].[Ir+3].c1cnc2c(c1)ccc1cccnc12 (centres unmarked) [ZL33, [(η^5-C5Me4C6H5)Ir(phen)Cl]PF6]
- % aqua adduct of ZL33 (ZL33A) ([1]; 4 mM NaCl, t = 10 min): 5%
- % aqua adduct of ZL33 (ZL33A) ([1]; 4 mM NaCl, t = 24 h): 5%
- % aqua adduct of ZL33 (ZL33A) ([1]; 22.7 mM NaCl, t = 24 h): 0%
- % aqua adduct of ZL33 (ZL33A) ([1]; 100 mM NaCl, t = 24 h): 0%
- IC50 [2]: 6.7 µM

Source: US9408853B2, “Iridium/rhodium anti-cancer compounds” (University of Warwick, priority 2010, dated 2016)
